Assay results reported in patent publication US11008292B2, “FGFR4 inhibitor and preparation method and use thereof” (GUANGDONG ZHONGSHENG PHARMACEUTICAL CO., LTD, priority 2016, dated 2021).
Read-outs that look alike come from different tables or passages of the source.

How the values were obtained:
FGFR4 kinases = target: T1, FGFR4 kinases (Homo sapiens, UniProt P22455); experiment: In vitro enzyme activity test, Z′-LYTE Assay, FGFR4 enzymatic reaction; type: biochemical; details: for IC50: Z′-LYTE detection, 150 μM ATP
T1 construct: purchased Life technology
Protocol: (§1) The inhibitory effects of the compounds on FGFR4 kinases were assessed by detecting the enzymatic activities through Z′-LYTE® Assay, with the IC50 value of the compound as the indicator. This activity test was performed by Life technology.
(§2) The test compounds were diluted in a concentration gradient of 3-times, the final concentrations were 10 concentrations ranging from 10 μM to 0.5 nM, with double hole for each concentration; the content of DMSO in the detection reaction was 1%.
FGFR4 Enzymatic Reaction:
[…] The detection plate was Bar-coded Corning, low volume NBS, black 384-well plate, reaction conducted at room temperature for 60 minutes, and the reaction system was 10μμL.
(§3) To the kinase reaction solution was added 5 μL Development reagent B (1:64) to stop the reaction and incubated at 23° C. for 60 minutes, reading the plate with Envision instrument.
(§4) Data was transformed into the phosphorylation rate and the inhibitory rate by curve fitting with Model 205 in XLFIT (iDBS) to obtain the IC50 data of the compounds. It was set as 0% if the bottom of the curve was not in the range of −20% to 20%; otherwise it was set as 100% if the top of the curve was not in the range of 70% to 130%.

FGFR1 protein kinase = target: T2, FGFR1 protein kinase (Homo sapiens, UniProt P11362); experiment: In vitro enzyme activity test, Z′-LYTE Assay, FGFR1 enzymatic reaction; type: biochemical; details: Z′-LYTE detection; 25 μM ATP
T2 construct: purchased Life technology
Protocol: as §1, §2
FGFR1 Enzymatic Reaction:
1 nM FGFR1 protein kinase, 2 μM Tyr4 peptide, 25 μM ATP, 50 mM HEPES (pH 7.5), 10 mM MgCl2, 1 mM EGTA, 0.01% BRIJ-35, 2 mM MnCl2, 1 mM DTT. The detection plate was Black Proxiplate 384-Plus plate (PerkinElmer), reaction conducted at room temperature for 60 minutes, and the reaction system was 10μμL.
as §3, §4

[1] = Pharmacokinetic evaluation in mice (IV and oral gavage); type: in vivo, female Balb/c nude mice; details: for F (bioavailability; oral absorption ratio): PO gavage 10 mg/kg vs IV 2 mg/kg; for clearance: read-out: Cl (plasma clearance); for half-life: read-out: T1/2 (elimination half-life) (converted); for Vd: read-out: Vdss (steady-state apparent volume of distribution); for Cmax: read-out: Cmax (peak concentration); for Tmax: read-out: Tmax (time to peak)
Protocol: […] The test compound suspended in the corresponding solvent at 1 mg/ml was administered by gavage to female Balb/c nude mice (fasted overnight, at an age of 7-9 weeks), with a dosage of 10 mg/kg. Two groups of animals were both blood sampled about 30 μL from jugular vein or tail vein at 0.0833, 0.25, 0.5, 1.0, 2.0, 4.0, 6.0, 8.0 and 24 h post-administration, which was placed into an anticoagulant tube charged with EDTA-K2, and plasma was separated by centrifugation. Plasma concentrations were determined by LC-MS/MS process using WinNonlin™ Version 6.3 (Pharsight, Mountain View, Calif.) pharmacokinetic software, calculating the related pharmacokinetic parameters with a linear logarithmic trapezoidal method for […] models.

[2] = system: Hep3B Transplantation Models; experiment: Tumor growth inhibition (TGI), antitumor activity test of mice in vivo; details: 30 mg/kg BID, Hep3B transplantation model
Protocol: The evolutionary growth potential of a tumor was assessed by the relationship between the volume of the tumor and time. The long axis (L) and short axis (W) of a subcutaneous tumor were determined by a caliper twice a week, the tumor volume (TV) was calculated by the formula of ((L×W^2)/2). TGI was calculated by the difference value between the median of tumor volumes of mice in the solvent group and the median of tumor volumes of mice in the drug group, and represented by the percentage accounting for the median of tumor volumes in the solvent control group,
Calculated by the following formula: % TGI=((the median of tumor volume (control group)−the median of tumor volume (dosing group))/the median of tumor volume (control group))×100%
The original statistical analysis was completed by the analysis of repeated variance determination. Subsequently, multiple comparisons were performed by a Scheffe psot hoc experimental method. Single solvent (0.5% methylcellulose+1% aqueous solution of Tween) was the negative control.

[3] = mouse, plasma, IV tail vein 2 mg/kg, female Balb/c nude mice
[4] = mouse, plasma, IV tail vein 0.2 mg/kg, female Balb/c nude mice
[5] = mouse, plasma, PO gavage 10 mg/kg, female Balb/c nude mice

T2 sequence (P11362 22-822): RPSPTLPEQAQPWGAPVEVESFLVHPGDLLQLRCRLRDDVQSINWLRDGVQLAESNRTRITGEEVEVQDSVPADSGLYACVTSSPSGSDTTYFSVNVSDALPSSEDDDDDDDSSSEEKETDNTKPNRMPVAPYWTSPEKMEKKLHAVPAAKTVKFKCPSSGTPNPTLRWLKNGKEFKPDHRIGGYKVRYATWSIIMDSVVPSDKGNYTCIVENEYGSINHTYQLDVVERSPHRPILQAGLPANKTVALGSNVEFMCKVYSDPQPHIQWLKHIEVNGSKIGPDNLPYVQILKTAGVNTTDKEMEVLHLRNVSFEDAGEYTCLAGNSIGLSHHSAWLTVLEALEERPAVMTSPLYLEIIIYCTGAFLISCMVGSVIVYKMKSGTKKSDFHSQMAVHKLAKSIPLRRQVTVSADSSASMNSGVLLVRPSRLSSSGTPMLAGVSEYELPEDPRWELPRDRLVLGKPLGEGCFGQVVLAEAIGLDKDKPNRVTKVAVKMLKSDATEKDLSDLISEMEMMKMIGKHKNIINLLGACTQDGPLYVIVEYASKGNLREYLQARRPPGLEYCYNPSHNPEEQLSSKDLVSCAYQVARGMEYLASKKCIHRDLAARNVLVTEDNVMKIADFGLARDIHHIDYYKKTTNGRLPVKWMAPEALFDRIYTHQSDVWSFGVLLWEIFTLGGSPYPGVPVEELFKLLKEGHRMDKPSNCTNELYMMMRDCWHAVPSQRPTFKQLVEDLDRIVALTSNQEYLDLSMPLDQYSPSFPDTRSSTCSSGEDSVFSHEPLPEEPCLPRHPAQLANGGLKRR
T1 sequence (P22455 22-802): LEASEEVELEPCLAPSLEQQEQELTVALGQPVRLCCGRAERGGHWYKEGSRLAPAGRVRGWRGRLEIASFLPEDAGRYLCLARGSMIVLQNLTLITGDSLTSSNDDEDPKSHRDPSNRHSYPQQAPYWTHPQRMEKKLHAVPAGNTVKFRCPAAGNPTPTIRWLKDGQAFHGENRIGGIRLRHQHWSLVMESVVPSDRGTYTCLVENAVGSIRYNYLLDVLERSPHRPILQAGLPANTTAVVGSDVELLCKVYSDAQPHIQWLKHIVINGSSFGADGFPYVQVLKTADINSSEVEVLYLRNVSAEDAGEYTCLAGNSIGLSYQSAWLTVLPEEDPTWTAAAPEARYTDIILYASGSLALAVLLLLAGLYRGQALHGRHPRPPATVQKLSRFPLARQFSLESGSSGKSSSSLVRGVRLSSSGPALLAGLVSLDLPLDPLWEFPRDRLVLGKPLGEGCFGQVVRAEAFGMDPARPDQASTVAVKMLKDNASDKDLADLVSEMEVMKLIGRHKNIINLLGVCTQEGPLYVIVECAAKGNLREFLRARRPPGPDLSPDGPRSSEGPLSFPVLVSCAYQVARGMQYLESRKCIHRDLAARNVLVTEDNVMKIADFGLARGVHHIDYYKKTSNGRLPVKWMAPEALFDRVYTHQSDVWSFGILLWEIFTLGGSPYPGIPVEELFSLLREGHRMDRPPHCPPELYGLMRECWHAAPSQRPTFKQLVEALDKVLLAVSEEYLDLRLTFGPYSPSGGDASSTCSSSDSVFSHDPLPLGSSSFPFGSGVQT

Compound	IC50 (FGFR4 kinases)	IC50 (FGFR1 protein kinase)	also measured
C=CC(=O)Nc1cccc(C)c1Nc1ccc(/C(F)=C/c2cc(OC)cc(OC)c2)cn1 [Control example 1, reference compound]	8060 nM	> 10000 nM	–
C=CC(=O)Nc1cc(N2CCN(CC)CC2)cc(C)c1Nc1ncc(/C=C/c2c(Cl)c(OC)cc(OC)c2Cl)cn1 [Control example 2, reference compound]	14 nM	2970 nM	–
C=CC(=O)N[C@H]1COC[C@H]1Nc1ncc(/C=C/c2c(Cl)c(OC)cc(OC)c2Cl)cn1 [Control example 3, reference compound]	408 nM	–	–
C=CC(=O)N[C@H]1CCOC[C@H]1Nc1ncc(OCc2c(F)c(OC)cc(OC)c2F)cn1 [Control example 4]	–	–	F (bioavailability; oral absorption ratio) ([1]; female Balb/c nude mice): 0%; AUC(0-t) [1, 3]: 0.958 µM·h; clearance [1, 3]: 77.1 mL/min/kg; half-life [1, 3]: 6.84 min; Vd [1, 3]: 0.533 L/kg
C=CC(=O)Nc1cccc(C)c1Nc1ncc(OCc2c(Cl)c(OC)cc(OC)c2Cl)cn1 [Control example 5]	–	–	F (bioavailability; oral absorption ratio) ([1]; female Balb/c nude mice): 0%; AUC(0-t) [1, 3]: 0.528 µM·h; clearance [1, 3]: 127 mL/min/kg; half-life [1, 3]: 13.3 min; Vd [1, 3]: 1.28 L/kg
C=CC(=O)Nc1cccc(C)c1Nc1ncc(OCc2c(F)c(OC)cc(OC)c2F)cn1 [Control example 6]	–	–	F (bioavailability; oral absorption ratio) ([1]; female Balb/c nude mice): 0%; AUC(0-t) [1, 3]: 0.388 µM·h; clearance [1, 3]: 186 mL/min/kg; half-life [1, 3]: 14.1 min; Vd [1, 3]: 2.44 L/kg
C=CC(=O)N[C@H]1COC[C@H]1Nc1ncc(OCc2c(F)c(OC)cc(OC)c2F)cn1 [Control example 7]	–	–	Cl (plasma clearance) ([1]; IV tail vein 0.2 mg/kg, female Balb/c nude mice): 65 mL/min/kg; AUC(0-t) [1, 4]: 0.113 µM·h; half-life [1, 4]: 6.54 min; Vd [1, 4]: 0.581 L/kg; bioavailability ([1]; mouse, plasma, PO gavage 1.0 mg/kg vs IV 0.2 mg/kg, female Balb/c nude mice, read-out: F (bioavailability)): 0%
C=CC(=O)N[C@H]1COC[C@H]1Nc1ncc(OCc2c(Cl)c(OC)cc(OC)c2Cl)cn1 [Control example 8]	–	–	F (bioavailability; oral absorption ratio) ([1]; female Balb/c nude mice): 12.3%; AUC(0-t) [1, 3]: 1.8 µM·h; clearance [1, 3]: 39.7 mL/min/kg; half-life [1, 3]: 9.24 min; Vd [1, 3]: 0.407 L/kg; AUC(0-t) [1, 5]: 1.1 µM·h; Cmax [1, 5]: 2710 nM; Tmax [1, 5]: 15 min
C=CC(=O)Nc1cccc(C)c1Nc1ccc(/C(F)=C/c2c(Cl)c(OC)cc(OC)c2Cl)cn1 [Example 1]	112 nM	> 10000 nM	FGFR4 inhibitory activity enhanced compared with the control example 1 (FGFR4 kinases; ratio to control example 1): 70 times
C=CC(=O)Nc1cccc(C)c1Nc1ncc(/C(F)=C/c2c(Cl)c(OC)cc(OC)c2Cl)cn1 [Example 2]	84 nM	> 10000 nM	–
C=CC(=O)Nc1cccc(C)c1Nc1cnc(/C(F)=C/c2c(Cl)c(OC)cc(OC)c2Cl)cn1 [Example 5]	203 nM	–	–
C=CC(=O)Nc1cccc(F)c1Nc1ccc(/C(F)=C/c2c(Cl)c(OC)cc(OC)c2Cl)cn1 [Example 6]	124 nM	> 10000 nM	–
C=CC(=O)Nc1cccc(C)c1Nc1ccc(/C=C(\F)c2c(Cl)c(OC)cc(OC)c2Cl)cn1 [Example 7]	31 nM	> 10000 nM	TGI % (dosing on Day 21 for the last time) [2]: 108%
C=CC(=O)Nc1cccc(C)c1Nc1ccc(/C(F)=C(\C)c2c(Cl)c(OC)cc(OC)c2Cl)cn1 [Example 10]	544 nM	–	–
C=CC(=O)Nc1cc(N2CCN(CC)CC2)cc(C)c1Nc1ncc(/C(F)=C/c2c(Cl)c(OC)cc(OC)c2Cl)cn1 [Example 11]	20.1 nM	4980 nM	–
C=CC(=O)Nc1cc(N2CCN(CC)CC2)c(OC)cc1Nc1ncc(/C=C(\F)c2c(Cl)c(OC)cc(OC)c2Cl)cn1 [Example 12]	10.9 nM	25.8 nM	–
C=CC(=O)Nc1ccc(N2CCN(CC)CC2)c(C)c1Nc1ncc(/C=C(\F)c2c(Cl)c(OC)cc(OC)c2Cl)cn1 [Example 13]	30.1 nM	613 nM	–
C=CC(=O)Nc1ccc(OCCN2CCN(C)CC2)c(C)c1Nc1ncc(/C=C(\F)c2c(Cl)c(OC)cc(OC)c2Cl)cn1 [Example 14]	17.7 nM	182 nM	–
C=CC(=O)Nc1cc(N2CCN(CC)CC2)cc(C)c1Nc1ncc(/C=C(\F)c2c(Cl)c(OC)cc(OC)c2Cl)cn1 [Example 15]	1.58 nM	813 nM	FGFR4 inhibitory activity enhancement vs control example (FGFR4 kinases; ratio to control example 2): ~9 times
C=CC(=O)Nc1cccc(F)c1Nc1ccc(/C=C(\F)c2c(Cl)c(OC)cc(OC)c2Cl)cn1 [Example 18]	105 nM	1900 nM	–
C=CC(=O)N[C@H]1COC[C@H]1Nc1ncc(/C=C(\F)c2c(Cl)c(OC)cc(OC)c2Cl)cn1 [Example 19]	47 nM	3100 nM	FGFR4 inhibitory activity enhancement vs control example (FGFR4 kinases; ratio to control example 3): ~9 times

Continued, in another order:

IC50 (FGFR4 kinases)	IC50 (FGFR1 protein kinase)	Compound	also measured
575 nM	–	C=CC(=O)Nc1cc(F)c(F)cc1Nc1ccc(/C=C(\F)c2c(Cl)c(OC)cc(OC)c2Cl)cn1 [Example 22]	–
387 nM	–	C=CC(=O)Nc1cccc(Cl)c1Nc1ccc(/C=C(\F)c2c(Cl)c(OC)cc(OC)c2Cl)cn1 [Example 23]	–
10 nM	2100 nM	C=CC(=O)Nc1cccc(C)c1Nc1ncc(/C=C(\F)c2c(Cl)c(OC)cc(OC)c2Cl)cn1 [Example 24]	stability enhanced (plasma clearance) compared with the control example 5 ([1]; IV, mice, ratio to control example 5): 2 times; stability enhanced (plasma clearance) compared with the control example 6 ([1]; IV, mice, ratio to control example 6): more than 3 times; F (bioavailability; oral absorption ratio) ([1]; female Balb/c nude mice): 14.8%; AUC(0-t) [1, 3]: 1.32 µM·h; clearance [1, 3]: 50 mL/min/kg; half-life [1, 3]: 32.9 min; Vd [1, 3]: 1.82 L/kg; AUC(0-t) [1, 5]: 0.962 µM·h; Cmax [1, 5]: 282 nM; Tmax [1, 5]: 30 min
476 nM	355 nM	C=CC(=O)N[C@@H]1CCC[C@@H]1Nc1ncc(/C=C(\F)c2c(Cl)c(OC)cc(OC)c2Cl)cn1 [Example 25]	–
13 nM	–	C=CC(=O)Nc1cc(N2CCN(C(C)=O)CC2)cc(C)c1Nc1ncc(/C=C(\F)c2c(Cl)c(OC)cc(OC)c2Cl)cn1 [Example 26]	–
263 nM	3210 nM	C=CC(=O)Nc1cc(Cl)cc(F)c1Nc1ccc(/C=C(\F)c2c(Cl)c(OC)cc(OC)c2Cl)cn1 [Example 28]	–
268 nM	–	C=CC(=O)Nc1cc(F)cc(C)c1Nc1ccc(/C=C(\F)c2c(Cl)c(OC)cc(OC)c2Cl)cn1 [Example 29]	–
238 nM	–	C=CC(=O)Nc1cc(F)cc(C)c1Nc1ncc(/C=C(\F)c2c(Cl)c(OC)cc(OC)c2Cl)cn1 [Example 30]	–
560 nM	> 10000 nM	C=CC(=O)Nc1ccc(Cl)c(C)c1Nc1ccc(/C=C(\F)c2c(Cl)c(OC)cc(OC)c2Cl)cn1 [Example 31]	–
361 nM	–	C=CC(=O)N[C@@H]1COC[C@@H]1Nc1ncc(/C(F)=C/c2c(Cl)c(OC)cc(OC)c2Cl)cn1 [Example 32]	–
199 nM	–	C=CC(=O)NC1CN(C(C)=O)CC1Nc1ncc(/C=C(\F)c2c(Cl)c(OC)cc(OC)c2Cl)cn1 (stereo not shown) [Example 34]	–
23 nM	174 nM	C=CC(=O)Nc1ccc(OC)c(C)c1Nc1ncc(/C=C(\F)c2c(Cl)c(OC)cc(OC)c2Cl)cn1 [Example 35]	–
